Measurements: publication PMC12662241, “New xanthone and chemical constituents from the aerial parts of Mallotus glomerulatus and their cytotoxicity in MCF-7 and MDA-MB-231 breast cancer cells” (ADMET & DMPK, 2025)
Like-named read-outs stand apart in the source and are kept apart here.

Key:
MDA-MB-231 cells [1] = conditions: 50 µM
Experimental: (§1) MCF-7 cells were cultured in Dulbecco's Modified Eagle Medium/Nutrient Mixture F-12 (DMEM/F-12) (Gibco, New York, USA), which was supplemented with 10 % fetal bovine serum (FBS) (Gibco, New York, USA) and 1 % Penicillin-Streptomycin (P/S) (Gibco, New York, USA). MDA-MB-231 cells were cultured in DMEM high glucose (Gibco, New York, USA), supplemented with 10 % FBS and 1 % P/S.
(§2) MCF-7 cells were cultured in DMEM/F-12, while MDA-MB-231 cells were maintained in high-glucose DMEM. Both media were supplemented with 10 % foetal bovine serum (FBS) and 1 % penicillin/streptomycin (P/S). Cells were incubated for 24 h at 37 °C in a humidified atmosphere with 5 % CO2. […] Doxorubicin was used as a positive control. Following compound treatment, cells were incubated for 72 h under standard culture conditions. After treatment, the medium was replaced with serum-free medium containing 0.5 mg mL^-1 of 3-(4,5-dimethylthiazol-2-yl)-2,5-diphenyltetrazolium bromide (MTT), and cells were incubated for an additional 3 h. The MTT solution was then removed, and dimethyl sulfoxide (DMSO) was added to solubilize the formazan crystals. Absorbance was measured at 595 nm using a Microplate Spectrophotometer MR-850 BioPlate Reader (Biometrics Technologies, Wilmington, DE, USA). Compounds that reduced cell viability to ≤20 % compared to untreated controls were identified as hits for subsequent dose-response analysis. […] Treated cells were incubated for 72 h, followed by an MTT assay as described above. The absorbance at 595 nm was recorded, and IC50 values were determined using GraphPad Prism 9 (GraphPad Software, San Diego, CA, USA).

MCF-7 cells [2] = conditions: 50 µM
Experimental: as §1, §2

MDA-MB-231 cells [3] = experiment: Primary screening, MTT cell viability, MDA-MB-231; conditions: for viability at 50 µM: Homo sapiens, MDA-MB-231, 72 h, read-out: MDA-MB-231 cell viability, %, 50 μM, 72 h, MTT
Experimental: as §1, §2

MCF-7 cells [4] = experiment: Primary screening, MTT cell viability, MCF-7; conditions: for viability at 50 µM: Homo sapiens, MCF7, 72 h, read-out: MCF-7 cell viability, %, 50 μM, 72 h, MTT; for inhibition of viability of MCF-7 cells: primary single-concentration screening
Experimental: as §1, §2

MCF-7 cells [5] = experiment: Secondary screening (dose-response), MTT assay, MCF-7; format: cell-based, human; conditions: read-out: IC50 MCF-7
Experimental: as §1, §2

in vitro = conditions: human, HepG2 cells
Experimental: (§3) The human liver cells (HepG2 cells) were seeded into a 96-well plate at a cell density of 10^4 cells/well and were incubated with DMEM/F-12 with 10 % FBS and 1 % P/S for 24 hours in an incubator (37 °C and 5 % CO2). […] Then, they were additionally incubated for 72 hours. After 72 hours of incubation, the culture media containing the compounds were removed, and serum-free media containing MTT was added instead, with an additional 3 hours of incubation at 37 °C and 5 % CO2. After 3 hours of incubation, the MTT-containing media was removed and DMSO was added to the assay plates, resulting in different shades of purple colour measured by Microplate Spectrophotometer MR-850 BioPlate Reader. The calculation of CC50 was analysed by using GraphPad Prism 9.

HepG2 cells = conditions: for SI (CC50/IC50) HepG2: MDA-MB-231: ratio of CC50 in HepG2 to IC50 in MDA-MB-231; for SI (CC50/IC50) HepG2: MCF-7: ratio of CC50 in HepG2 to IC50 in MCF-7
Experimental: as §3

MDA-MB-231 cells [6] = experiment: Secondary screening (dose-response), MTT assay, MDA-MB-231; format: cell-based, human; conditions: read-out: IC50 MDA-MB-231
Experimental: as §1, §2

With 3,6-phenanthrenedione [Compound 5] the “MDA-MB-231 cell viability, %” value (MDA-MB-231 cells [1]) was 68.01 ± 3.88% and the “MCF-7 cell viability, %” value (MCF-7 cells [2]) was 75.58 ± 4.26%.
C=C[C@@]1(C)C[C@H]2C[C@H](O)[C@]3(O)[C@@H](CCCC3(C)C)[C@]2(C)CC1=O [Compound 2, glomerulatusin] gave a viability at 50 µM (MDA-MB-231 cells [3]; mean ± SEM) of 56.3 ± 2.17% and a viability at 50 µM (MCF-7 cells [4]; mean ± SEM) of 77.7 ± 4.87%.
C[C@H]1C(=O)CC[C@@H]2[C@]1(C)CC[C@H]1[C@@]2(C)CC[C@@]2(C)[C@@H]3CC(C)(C)CC[C@]3(C)CC[C@]12C [Compound 3, friedelin] gave a viability at 50 µM (MDA-MB-231 cells [3]; mean ± SEM) of 68.1 ± 2.96% and a viability at 50 µM (MCF-7 cells [4]; mean ± SEM) of 79.2 ± 4.29%.
With CC1(C)C(=O)C=C[C@]2(C)[C@@H]1CC[C@@]13C[C@@H](CC[C@H]12)C(O)(CO)C3 (stereo partly drawn) [Compound 4, anomaluone] the viability at 50 µM (MDA-MB-231 cells [3]; mean ± SEM) was 53.8 ± 1.88% and the viability at 50 µM (MCF-7 cells [4]; mean ± SEM) was 72.7 ± 4.68%.
With O=C1C[C@@H](c2ccccc2)Oc2cc(O)cc(O)c21 [Compound 6, pinocembrin] the viability at 50 µM (MDA-MB-231 cells [3]; mean ± SEM) was 74.4 ± 2.32% and the viability at 50 µM (MCF-7 cells [4]; mean ± SEM) was 95.6 ± 2.96%.
COc1cc(O)c2c(c1)O[C@H](c1ccccc1)CC2=O [Compound 7, pinostrobin] showed a viability at 50 µM (MDA-MB-231 cells [3]; mean ± SEM) of 61.6 ± 3.69% and a viability at 50 µM (MCF-7 cells [4]; mean ± SEM) of 88.5 ± 4.12%.
COc1cc(-c2cc(=O)c3c(O)c(OC)c(OC)cc3o2)cc(OC)c1OC [Compound 8, 5-hydroxy-6,7,3',4',5'-pentamethoxyflavone] gave a viability at 50 µM (MDA-MB-231 cells [3]; mean ± SEM) of 44.7 ± 1.93% and a viability at 50 µM (MCF-7 cells [4]; mean ± SEM) of 63.1 ± 1.83%.
O=c1cc(-c2ccccc2)oc2cc(O)cc(O)c12 [Compound 9, chrysin] gave a viability at 50 µM (MDA-MB-231 cells [3]; mean ± SEM) of 64.5 ± 1.19% and a viability at 50 µM (MCF-7 cells [4]; mean ± SEM) of 76.7 ± 3.4%.
In the case of COc1cc2c(O[C@@H]3OC[C@@H](OC)[C@H](OC)[C@H]3O)c3c(c(-c4ccc5c(c4)OCO5)c2cc1OC)C(=O)OC3 [Compound 10, cleistanthin A], the IC50 (MCF-7 cells [5]; Homo sapiens, MCF7, 72 h) is reported as 540 nM, the CC50 at 72 h (in vitro) is reported as 5370 nM and the “SI (CC50/IC50) HepG2: MDA-MB-231” value (HepG2 cells) is reported as 268.50. For the same compound, the “SI (CC50/IC50) HepG2: MDA-MB-231” value (HepG2 cells; listed as cleistanthin A) was greater than 100, the viability at 50 µM (MDA-MB-231 cells [3]; mean ± SEM) was 8.85 ± 0.73% and the “inhibition of viability of MDA-MB-231 cells” value (MDA-MB-231 cells [3]; primary single-concentration screening, 50 μM, 72 h) was “more than 80%”. For the same compound, the viability at 50 µM (MCF-7 cells [4]; mean ± SEM) was 1.72 ± 0.23%, the “inhibition of viability of MCF-7 cells” value (MCF-7 cells [4]; 50 μM, 72 h) was “more than 80%” and the IC50 (MDA-MB-231 cells [6]; Homo sapiens, MDA-MB-231, 72 h) was 20 nM.
In the case of CC(=O)c1ccc(O)cc1 [Compound 11, 4-hydroxyacetophenone], the viability at 50 µM (MDA-MB-231 cells [3]; mean ± SEM) is reported as 50.2 ± 2.73% and the viability at 50 µM (MCF-7 cells [4]; mean ± SEM) is reported as 85.2 ± 4.2%.
With COc1cccc2c1C(=O)c1c(O)c3c(c(O)c1C2=O)C[C@@](O)(C(=O)CO)C[C@@H]3O[C@H]1C[C@H](N)[C@H](O)[C@H](C)O1 [Doxorubicin, reference compound] the IC50 (MCF-7 cells [5]; Homo sapiens, MCF7, 72 h, MTT, mean ± SD) was 660 nM, the CC50 at 72 h (in vitro) was 550 nM and the “SI (CC50/IC50) HepG2: MCF-7” value (HepG2 cells; listed as DoxorubICin) was 0.83. The “SI (CC50/IC50) HepG2: MCF-7” value (HepG2 cells; listed as doxorubicin) was “below 1”, the “SI (CC50/IC50) HepG2: MDA-MB-231” value (HepG2 cells; listed as DoxorubICin) was 0.56 and the “SI (CC50/IC50) HepG2: MDA-MB-231” value (HepG2 cells; listed as doxorubicin) was “below 1”. For the same compound, the viability at 50 µM (MDA-MB-231 cells [3]; mean ± SEM) was 4.72 ± 1.07%, the viability at 50 µM (MCF-7 cells [4]; mean ± SEM) was 4.02 ± 0.24% and the IC50 (MDA-MB-231 cells [6]; Homo sapiens, MDA-MB-231, 72 h, MTT, mean ± SD) was 980 nM.
In the case of “(3,4,5)-trihydroxy-6-methoxy-2,7-bis(3-methylbut-2-en-1-yl)-9H-xanthen-9-one [Compound 1]”, the IC50 (MCF-7 cells [5]; 72 h, MTT, mean ± SD) is reported as 28300 nM, the CC50 (HepG2 cells; read-out: CC50 HepG2, 72 h, MTT) is reported as 32800 nM and the “MDA-MB-231 cell viability, %” value (MDA-MB-231 cells [3]; 50 μM, 72 h, MTT, mean ± SEM) is reported as 59.00 ± 3.33%. For the same compound, the “MCF-7 cell viability, %” value (MCF-7 cells [4]; 50 μM, 72 h, MTT, mean ± SEM) was 1.60 ± 0.10%, the “inhibition of viability of MCF-7 cells” value (MCF-7 cells [4]; 50 μM, 72 h) was “more than 80%” and the IC50 (MDA-MB-231 cells [6]; 72 h, MTT, mean ± SD) was 34200 nM.
